The source of these data is PubChem BioAssay AID1259420 (Broad Institute, 2018).

As usually defined, the AC50 is the concentration at which the activity in the assay is half-maximal.

For the test, the system named is Toxoplasma gondii growth in host cells, no IFN-gamma. The experiment in a line: compound activity on host-cell Toxoplasma growth – dose response (AID 1259420).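 Further: host cells were HeLa; final incubation lasted 72 hours.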

Each structure is given as a SMILES string. “And” between values parts separate entries of the source, which are not always exact repeats. Equal values may be shown once. Results filed as inconclusive are left out. The source made the active and inactive calls. How the calls were made is not given here. A value given as a limit tells only on which side of the number the result lay.

On to `CN(C)C(=O)c1cccc(-c2ccc3c(c2)[C@H]2[C@H](CCN2C(=O)Cc2ccccc2)[C@H](CO)N3)c1`, for which the concentration at half-maximal activity (AC50) is 16.6 µM. With `O=C(C[C@H]1CC[C@H]2[C@@H](COC[C@@H](O)CN2S(=O)(=O)c2ccccc2F)O1)N1CCC(Cc2ccccc2)CC1`, the AC50 is > 20 µM (inactive). Then `N#Cc1cccc(-c2ccc(C3[C@@H]4CN(C(=O)c5ccc6c(c5)OCO6)C[C@H]3N4)cc2)c1` (stereo partly specified), with > 39 µM (inactive); and `CN1[C@@H]2c3ccc(/C=C/c4ccccc4)c(=O)n3C[C@H]1[C@H](CO)[C@H]2C(=O)NC1Cc2ccccc2C1`, with > 39 µM (inactive); and `CCCCOc1ccc2c(=O)c(-c3cc(C(=O)OC)oc3C)c(C(F)(F)F)oc2c1C`, with 8.86 µM and 8.94 µM.

On to `COCCN1CCN(S(=O)(=O)c2ccccc2)Cc2cccnc21`, for which the concentration at half-maximal activity (AC50) was 31.1 µM. Then `O=C(C[C@@H]1CC[C@@H]2[C@H](COC[C@@H](O)CN2S(=O)(=O)c2ccccc2)O1)NCC1CCCCC1`, with 33.4 µM. On to `CCCNC(=O)N1[C@@H](C#N)[C@H](c2ccc(C#Cc3cccc(F)c3)cc2)[C@@H]1CO`, for which the AC50 is 19.3 µM. In the case of `Nc1ncnc2c1ncn2[C@@H]1O[C@H](C[C@@H](N)CC[C@H](N)C(=O)O)[C@@H](O)[C@H]1O` it was 1.38 µM; in that of `N#C[C@H]1[C@@H](c2ccc(-c3cccc(F)c3)cc2)[C@@H](CO)N1C(=O)NC1CCCC1`, > 39 µM (inactive). In the case of `CCOC(=O)c1nn(Cc2ccccc2)c2c1CN(C(=O)CN1CC(c3ccccc3)CC1=O)CC2` (stereo unspecified) it was 28.6 µM; in that of `O=C(C[C@@H]1CC[C@@H]2[C@H](COC[C@@H](O)CN2Cc2ccc(Oc3ccccc3)cc2)O1)N1CCN(c2ccccc2)CC1`, 16.5 µM; in that of `Cc1ccccc1-c1ccc2c(-c3ncc(C(=O)NCCN(C)C)s3)noc2c1`, 24.7 µM. In the case of `O=C(C[C@@H]1CC[C@@H]2[C@H](COC[C@H](O)CN2Cc2ccc3c(c2)OCO3)O1)N1CCCCC1` it was > 39 µM (inactive); in that of `C/C=C/c1ccc(C2[C@H]3CNC[C@@H]2N3C(=O)NC2CCCCC2)cc1` (stereo partly specified), 13.3 µM.

Take `CCCC(C)c1c(-c2ccccc2)ncn1Cc1cnc(C)cn1` (stereo unspecified): the AC50 was 36.1 µM. Turning to `C/C=C/c1ccc(C2[C@@H]3CN(S(=O)(=O)c4ccccc4F)C[C@H]2N3)cc1` (stereo partly specified), the AC50 was 20.7 µM. Then `COc1ccc(-c2nc(N3CCC(N4CCCCC4)CC3)c3ccccc3n2)cc1`, with > 39 µM (inactive).

Consider `O=C(c1ccc(F)cc1)N1CC(=O)N2[C@H](CO)[C@H](c3ccc(C#CCC4CCCC4)cc3)[C@@H]2C1`, for which the AC50 was 14.7 µM. In the case of `OC[C@H]1O[C@@H](n2cnc3c(NC4CCCC4)nc(Cl)nc32)[C@H](O)[C@@H]1O` it was > 39 µM (inactive); in that of `COc1ccccc1-c1nc(CN2CCc3c(sc4c3CCCC4)C2c2ccccc2)c(C)o1` (stereo unspecified), 22.4 µM; in that of `CC(C)NC(=O)[C@H]1C[C@H]2CCN(CCOCc3ccccc3)C[C@@H]2O1`, > 39 µM (inactive). Then `CCCN1CCC[C@@H]2Cc3[nH]ncc3C[C@H]21`, with > 39 µM (inactive); and `O=C(C1CCC1)N1CC[C@H]2CN(Cc3cccc(Cl)c3)S(=O)(=O)[C@@H]2CC1`, with > 39 µM (inactive). In the case of `CC(C)NC(=O)N1CC(=O)N2[C@H](C1)[C@@H](c1ccc(/C=C/c3ccccc3)cc1)[C@@H]2CO` it was 17.9 µM; in that of `CN(C[C@H]1[C@H](c2ccccc2)[C@@H](CO)N1CC1CC1)C(=O)c1ccc(F)cc1`, > 39 µM (inactive). For the compound `N#Cc1cccc(-c2ccc(C3[C@@H]4CN(C(=O)Nc5ccc(C(F)(F)F)cc5)C[C@H]3N4)cc2)c1` (stereo partly specified), the AC50 is 14.4 µM and 14.6 µM. Then `COCC(=O)N1CC(=O)N2[C@H](CO)[C@@H](c3ccc(C#CC4CC4)cc3)[C@@H]2C1`, with > 39 µM (inactive); and `CN1C(=O)c2cc(NC(=O)c3cccc(F)c3)ccc2OC[C@@H]2O[C@H](CC(=O)NCC3CCCCC3)CC[C@@H]21`, with > 39 µM (inactive); and `CS(=O)(=O)N1CC(=O)N2[C@@H](CO)[C@H](c3ccc(C#Cc4ccc(F)cc4)cc3)[C@@H]2C1`, with 28 µM. For `CCc1cnc(N2[C@H](C#N)[C@@H](c3ccc(-c4cccc(F)c4)cc3)[C@@H]2CO)s1`, the AC50 is > 39 µM (inactive).

Take `COc1ccc(Cc2cnc(N)nc2N)cc1OC`: the AC50 is 25.8 µM.

`Cc1ccc(C)c(S(=O)(=O)N2CCC3(CC2)c2ncc(-c4cccc(F)c4)n2CCN3C)c1`: the AC50 is > 20 µM (inactive). Then `COc1cc2nc(N3CCN(C(=O)c4ccco4)CC3)nc(N)c2cc1OC`, with 19 µM; and `O=S(=O)(c1cccc(F)c1)N1CC[C@@H]2[C@H]1c1cc(C#Cc3ccccc3F)ccc1N[C@@H]2CO`, with 17.3 µM. With `O=C(Nc1cccc(F)c1)N1CCCCN2[C@H](CO)[C@H](c3ccc(C#Cc4cccnc4)cc3)[C@H]2C1`, the AC50 was 16.4 µM. For `CN(Cc1ccccn1)C(=O)C1=NOC2(CCN(S(=O)(=O)c3ccc(F)cc3)C2)C1` (stereo unspecified), the AC50 is > 39 µM (inactive).

Take `CN(C)C(=O)COCC1CN(S(C)(=O)=O)Cc2nnn(C)c21` (stereo unspecified): the AC50 was > 39 µM (inactive).

As to `COCC(=O)N1[C@@H](C#N)[C@H](c2ccc(C#CCC3CCCC3)cc2)[C@@H]1CO`, the AC50 was 18.7 µM. Then `CC(=O)N(C)C1(c2ccccc2)CCN(CCC[C@]2(c3ccc(Cl)c(Cl)c3)CCCN(C(=O)c3ccccc3)C2)CC1`, with 16.7 µM. In the case of `COc1cccc(-c2nc3c(s2)CN(S(=O)(=O)c2ccccc2C)CC3)c1`, the AC50 was 34.7 µM. For `COc1ccc(NC(=O)N2CCCCN3[C@H](CO)[C@@H](c4ccc(-c5ccccc5F)cc4)[C@@H]3C2)cc1`, the AC50 is 19.1 µM. In the case of `Cc1ccccc1S(=O)(=O)N1CC[C@@H]2[C@H]1c1cc(-c3cccc(F)c3)ccc1N(C)[C@H]2CO` it was 10.7 µM; in that of `Cc1ccccc1-c1ccc(C2[C@H]3CNC[C@@H]2N3Cc2ccc3c(c2)OCO3)cc1` (stereo partly specified), > 20 µM (inactive); in that of `N#Cc1cccc(-c2ccc3c(c2)[C@@H]2[C@@H](CCN2S(=O)(=O)c2ccc(F)cc2)[C@H](CO)N3)c1`, 10.1 µM. Then `O=C(C1CCC1)N1C[C@@H]2N[C@H](C1)C2c1ccc(/C=C/c2ccccc2)cc1` (stereo partly specified), with 12.7 µM and 11.5 µM. Consider `Cc1ccc(N(Cc2nc(-c3cccc(Cl)c3)oc2C)S(=O)(=O)c2cccs2)cc1`, for which the AC50 is 8.34 µM. In the case of `C=C(C)[C@@H]1CC[C@]2(C(=O)O)CC[C@]3(C)[C@H](CC[C@@H]4[C@@]5(C)CC[C@H](O)C(C)(C)[C@@H]5CC[C@]43C)[C@@H]12` it was 26.9 µM; in that of `CN1C(=O)c2cc(NC(=O)Cc3cccs3)ccc2OC[C@H]2O[C@H](CC(=O)NCc3ccc(-c4ccccc4)cc3)CC[C@@H]21`, 29.4 µM. In the case of `N#C[C@H]1[C@H](c2ccc(C#Cc3ccccc3F)cc2)[C@@H](CO)N1C(=O)c1cccnc1` it was > 39 µM (inactive); in that of `Clc1cncc(OC[C@H]2CO[C@@H]3CN(Cc4cccs4)C[C@@H]23)c1`, > 39 µM (inactive). In the case of `CCCNC(=O)N1[C@H](CO)[C@@H](c2ccc(-c3ccccc3F)cc2)[C@@H]1C#N` it was > 39 µM (inactive); in that of `CC(C)Oc1ccc(NC(=O)c2nc3c(n2C(C)C)CCN(C(=O)c2ccccc2)C3)cc1`, 31.9 µM. Take `COc1ccc(-c2ccc([C@@H]3[C@@H](CO)N4C(=O)CN(Cc5ccccc5)C[C@H]34)cc2)cc1`: the AC50 was > 39 µM (inactive).

On to `Cc1ccccc1-c1ccc([C@H]2[C@@H](CO)N3CCCCN(S(=O)(=O)Cc4ccccc4)C[C@H]23)cc1`, for which the AC50 is 22.7 µM. With `CC(C)NC(=O)N1CC(=O)N2[C@@H](CO)[C@H](c3ccc(/C=C/c4ccccc4)cc3)[C@@H]2C1`, the AC50 was > 39 µM (inactive). In the case of `COc1cccc(NC(=O)N2CC(=O)N3[C@H](CO)[C@H](c4ccc(C#CCC5CCCC5)cc4)[C@@H]3C2)c1` it was 15.9 µM. Then `N#Cc1ccc(-c2ccc([C@H]3[C@@H](CO)N4C(=O)CNC[C@@H]34)cc2)cc1`, with > 39 µM (inactive). As to `CCn1c(C2CCCN(C(=O)CCN3CCCCCC3=O)C2)nn(C)c1=O` (stereo unspecified), the AC50 is 29.4 µM. In the case of `O=C(Nc1ccc(F)cc1)N1CC(=O)N2[C@H](C1)[C@H](c1ccc(-c3cccc(F)c3)cc1)[C@@H]2CO` it was 15 µM. Take `Cc1nc(N2CCOCC2)nc2c1CCN(C(=O)C1CC1)CC2`: the half-maximal activity concentration (AC50) was 21.7 µM.

For `COc1cccc(NC(=O)N2CC(=O)N3[C@H](C2)[C@H](c2ccc(C#CCC4CCCC4)cc2)[C@@H]3CO)c1`, the half-maximal activity concentration (AC50) was 16.9 µM. In the case of `COc1cccc(CN2C[C@@H]3N[C@H](C2)C3c2ccc(-c3ccccc3C)cc2)c1` (stereo partly specified) it was 12.3 µM; in that of `Cc1ccc(CNC2=NCCNC23CCN(S(=O)(=O)c2ccc4c(c2)CCCC4)CC3)cc1`, 23 µM; in that of `COCC1CN(C(=O)c2cc(C)on2)Cc2c1cnn2CC1CC1` (stereo unspecified), > 39 µM (inactive).

For `C[C@@H]1CN([C@@H](C)CO)C(=O)c2cccc(NC(=O)NC3CCCCC3)c2O[C@H]1CN(C)Cc1ccc(C(F)(F)F)cc1`, the AC50 is > 39 µM (inactive). Then `CS(=O)(=O)NCc1cnc2n1CCN(Cc1cccs1)CC2`, with 25.6 µM; and `Cc1ccc(S(=O)(=O)N2C[C@H](O)COC[C@@H]3O[C@H](CC(=O)NCc4ccc5c(c4)OCO5)CC[C@H]32)cc1`, with > 39 µM (inactive); and `COc1cc(N2CCO[C@H]3[C@@H](Oc4ncccc4F)CC[C@H]32)ncn1`, with 6.3 µM. Then `CCN1CCN(Cc2ccc(Nc3nc(-c4ccc(OC)cc4)nc4ccccc34)cc2)CC1`, with 13.5 µM; and `CN(C)C(=O)c1ccc(-c2ccc3c(c2)[C@H]2[C@H](CCN2C(=O)C2CCCC2)[C@@H](CO)N3C)cc1`, with 14.6 µM; and `CCN(CC)C(=O)C1Cn2ccnc2C2(CCN(CC(C)C)CC2)O1` (stereo unspecified), with > 39 µM (inactive).

For the compound `O=S(=O)(c1ccc(-c2ccccc2)cc1)N1C[C@@H]2N[C@H](C1)C2c1ccc(-c2ccncc2)cc1` (stereo partly specified), the concentration at half-maximal activity (AC50) was 16.1 µM. In the case of `Fc1cccc(CN2C[C@@H]3N[C@H](C2)C3c2ccc(/C=C/c3ccccc3)cc2)c1` (stereo partly specified) it was 17.6 µM. As for `COCCC(=O)C1Cc2nc(-c3ccccc3)sc2N1CC1CC1` (stereo unspecified), the AC50 is 25.2 µM. As to `COC(=O)C1CC23C=CNC4CCC5(c6ccccc6NC15C2C)C43` (stereo unspecified), the AC50 is 19.4 µM.
